In US20260374739A1, “SMALL MOLECULAR WEIGHT CHEMICAL COMPOUND TO ANTAGONIZE EPH-EPHRIN TETRAMERIZATION AND INHIBIT BIDIRECTIONAL SIGNALING” (THE BOARD OF REGENTS OF THE UNIVERSITY OF TEXAS SYSTEM, priority 2022, published 2026):
“And” between values parts separate entries of the source, which are not always exact repeats. Equal entries are not always repeated. Where two headings read alike, the source gives them in different places. Marks after values point to notes of the source that are not given here.

Experiments:
[1] = target: T1, EphrinB2-EphB1 (Homo sapiens, UniProt P54762); assay: Octet 80 sec association/500 sec dissociation, immobilized human EphrinB2-Fc binding to soluble human EphB1-His; conditions: for EphB1 Inhibition Percent, Inhibition of Association ONLY: at 3.2 μM and 80 seconds; for inhibition at 3.2 µM: EphB1, 25 nM EphB1, 3.2 μM compound, A20-I as max control, 0* = less than 0, no inhibition
T1 construct: soluble human EphB1-His, EphB2-His, and EphB4-His ectodomains; commercially available human EphrinB1-Fc (EB1), EphrinB2-Fc (EB2), and EphrinB3-Fc (EB3) ectodomain proteins; purchased
T1 sequence (P54762 18-540 limits assumed): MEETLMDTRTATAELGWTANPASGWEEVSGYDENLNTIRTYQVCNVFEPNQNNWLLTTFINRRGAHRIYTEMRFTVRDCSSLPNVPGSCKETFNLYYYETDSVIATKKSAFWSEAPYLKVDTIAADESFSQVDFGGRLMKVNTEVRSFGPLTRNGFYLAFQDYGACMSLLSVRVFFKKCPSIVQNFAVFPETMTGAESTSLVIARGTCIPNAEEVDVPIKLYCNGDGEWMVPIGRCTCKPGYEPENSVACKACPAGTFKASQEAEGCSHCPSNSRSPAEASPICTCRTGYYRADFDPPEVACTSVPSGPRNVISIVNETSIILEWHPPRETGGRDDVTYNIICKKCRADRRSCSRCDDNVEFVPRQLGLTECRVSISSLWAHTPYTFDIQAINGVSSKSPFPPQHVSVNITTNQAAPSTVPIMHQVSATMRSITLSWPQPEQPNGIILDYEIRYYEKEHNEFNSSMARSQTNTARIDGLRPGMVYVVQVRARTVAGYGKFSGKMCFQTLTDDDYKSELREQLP
How it was run: (§1)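 EphrinB2-Fc captured on AHC biosensors, then soluble His-tagged EphB ectodomain (25 nM for % inhibition runs) associated 80 s and dissociated 500 s in PBS, 0.05% Tween-20, 1% DMSO ± compound. Compounds tested at 0.1–3.2 μM with a 10 μM max standard; IC50 from AUC of full traces or at 75 s and 135 s.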

[2] = target: T2, EphrinB2-EphB2 (Homo sapiens, UniProt P29323); assay: Octet 80 sec association/500 sec dissociation, immobilized human EphrinB2-Fc binding to soluble human EphB2-His; conditions: for EphB2 Inhibition Percent, Inhibition of Association-Dissociation: at 3.2 μM and 580 seconds; for inhibition at 3.2 µM: EphB2, 25 nM EphB2, 3.2 μM compound, A20-I as max control, 0* = less than 0, no inhibition
T2 construct: soluble human EphB1-His, EphB2-His, and EphB4-His ectodomains; commercially available human EphrinB1-Fc (EB1), EphrinB2-Fc (EB2), and EphrinB3-Fc (EB3) ectodomain proteins; purchased
T2 sequence (P29323 19-543 limits assumed): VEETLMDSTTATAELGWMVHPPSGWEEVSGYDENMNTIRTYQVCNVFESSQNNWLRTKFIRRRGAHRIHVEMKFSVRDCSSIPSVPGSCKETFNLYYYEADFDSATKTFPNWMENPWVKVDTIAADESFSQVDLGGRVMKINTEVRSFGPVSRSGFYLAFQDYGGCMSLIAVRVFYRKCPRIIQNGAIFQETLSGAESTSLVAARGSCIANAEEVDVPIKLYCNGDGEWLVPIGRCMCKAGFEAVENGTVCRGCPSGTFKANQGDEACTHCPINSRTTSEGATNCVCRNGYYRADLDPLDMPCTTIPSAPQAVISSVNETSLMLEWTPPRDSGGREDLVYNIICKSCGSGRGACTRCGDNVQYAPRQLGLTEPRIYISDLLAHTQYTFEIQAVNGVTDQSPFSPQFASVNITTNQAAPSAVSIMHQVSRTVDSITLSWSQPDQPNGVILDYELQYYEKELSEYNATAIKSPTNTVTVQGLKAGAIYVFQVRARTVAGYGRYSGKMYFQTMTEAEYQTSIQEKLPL
How it was run: as §1

[3] = target: T2, EphrinB2-EphB2; assay: Octet tetramerization inhibition, immobilized human EphrinB2 binding to 50 nM soluble human EphB2
[4] = immobilized human EphrinB2, 25 nM soluble human EphB1
[5] = immobilized human EphrinB2, 25 nM soluble human EphB2
[6] = Absolute AUC/IC50, Table A, EphrinB2-EphB2
[7] = Absolute Association IC50 (300 sec), Table A, EphrinB2-EphB2
[8] = Absolute Dissociation IC50 (450 sec), Table A, EphrinB2-EphB2
[9] = Relative AUC/IC50, Table A, EphrinB2-EphB2, compound 7: association only
[10] = Relative Association IC50 (300 sec), Table A, EphrinB2-EphB2
[11] = Relative Dissociation IC50 (450 sec), Table A, EphrinB2-EphB2
[12] = read-out: % Inhibition: Association + Dissociation (160 sec)
[13] = read-out: % Inhibition: Association ONLY (80 sec)

| SMILES | EphB1 Inhibition Percent, Inhibition of Association ONLY [1, 4] [%] | EphB1 Inhibition Percent, Inhibition of Association-Dissociation ([1]; at 3.2 μM and 580 seconds, immobilized human EphrinB2, 25 nM soluble human EphB1) [%] | EphB2 Inhibition Percent, Inhibition of Association ONLY ([2]; at 3.2 μM and 80 seconds, immobilized human EphrinB2, 25 nM soluble human EphB2) [%] | EphB2 Inhibition Percent, Inhibition of Association-Dissociation [2, 5] | IC50 [3, 7] | IC50 [3, 9] [µM] | inhibition of EphrinB2-EphB interactions ([2]; 3.2 μM, EphB1, EphB2 and EphB4) | IC50 [3, 6] | IC50 [3, 8] | IC50 [3, 10] [µM] | IC50 [3, 11] | inhibition at 3.2 µM [1, 12] [%] | inhibition at 3.2 µM [1, 13] [%] | inhibition at 3.2 µM [2, 12] [%] | inhibition at 3.2 µM [2, 13] [%] | IC50 ([3]; tetramerization inhibitor IC50 (relative), association step, surmountable tetramer) [µM] | inhibition of EphB1-EphrinB2 binding ([1]; association step, general) [%] | inhibition of EphB2-EphrinB2 binding ([2]; association step, general) [%] |
| --- | --- | --- | --- | --- | --- | --- | --- | --- | --- | --- | --- | --- | --- | --- | --- | --- | --- | --- |
| Oc1ccc(CN2CCN(Cc3ccc(Br)cc3)CC2)c2cccnc12 [Compound 42, 5-((4-(4-bromobenzyl)piperazin-1-yl)methyl)quinolin-8-ol] | – | – | – | – | – | 0.93 | – | 2.51 µM | 1.91 µM | 1.02 | 1.05 µM | 36.5 | 19.9 | 56.3 | 37.8 | – | – | – |
| O=[N+]([O-])c1cc(CN2CCS(=O)(=O)CC2)c2cccnc2c1O [Compound 20, 4-((8-hydroxy-7-nitroquinolin-5-yl)methyl)thiomorpholine 1,1-dioxide] | – | – | – | – | > 3.2 µM | – | – | > 3.2 µM | > 3.2 µM | 2.14 | 2.09 µM | 36 | 24 | 51.7 | 36.7 | > 3 | 25 | 40 |

Further lines, with some results ahead:

| EphB1 Inhibition Percent, Inhibition of Association ONLY [1, 4] [%] | EphB1 Inhibition Percent, Inhibition of Association-Dissociation ([1]; at 3.2 μM and 580 seconds, immobilized human EphrinB2, 25 nM soluble human EphB1) [%] | EphB2 Inhibition Percent, Inhibition of Association ONLY ([2]; at 3.2 μM and 80 seconds, immobilized human EphrinB2, 25 nM soluble human EphB2) [%] | EphB2 Inhibition Percent, Inhibition of Association-Dissociation [2, 5] | IC50 [3, 7] | IC50 [3, 9] [µM] | inhibition of EphrinB2-EphB interactions ([2]; 3.2 μM, EphB1, EphB2 and EphB4) | SMILES | IC50 [3, 6] | IC50 [3, 8] | IC50 [3, 10] [µM] | IC50 [3, 11] | inhibition at 3.2 µM [1, 12] [%] | inhibition at 3.2 µM [1, 13] [%] | inhibition at 3.2 µM [2, 12] [%] | inhibition at 3.2 µM [2, 13] [%] | IC50 ([3]; tetramerization inhibitor IC50 (relative), association step, surmountable tetramer) [µM] | inhibition of EphB1-EphrinB2 binding ([1]; association step, general) [%] | inhibition of EphB2-EphrinB2 binding ([2]; association step, general) [%] |
| --- | --- | --- | --- | --- | --- | --- | --- | --- | --- | --- | --- | --- | --- | --- | --- | --- | --- | --- |
| 16.9 | 35.0 | 5.4 | 35.1% | – | – | – | COCc1cc(CN2CCN(C)CC2)c(O)c2ncccc12 [Compound 77, 5-(methoxymethyl)-7-((4-methylpiperazin-1-yl)methyl)quinolin-8-ol, reference compound] | – | – | – | – | – | – | – | – | – | – | – |
| – | – | – | – | 2.82 µM and 3.02 µM | 2.14 | – | Oc1ccc(CN2CCN(Cc3ccccc3)CC2)c2cccnc12 [Compound 41, 5-((4-benzylpiperazin-1-yl)methyl)quinolin-8-ol] | 2.09 µM and > 3.2 µM | 3.02 µM and 3 µM | 1.82 | 2.24 µM and 2 µM | 27.7 | 18.7 | 25.3 | 9.1 | – | – | – |
| 1.2 | – | – | 0*% | > 3.2 µM | > 3.2 | showed no activity across the board | COc1ccc2[nH]cc(C(=O)N3CCOCC3)c2c1 [Compound 63, (5-methoxy-1H-indol-3-yl)(morpholino)methanone] | > 3.2 µM | > 3.2 µM | > 3.2 | > 3.2 µM | 0 | 1.19 | 1.3 | 4.3 | – | – | – |
